Values quoted from earlier work in patent US20200338016A1, “COMBINATION BROAD-SPECTRUM ANTIBIOTIC PREPARATIONS FOR DRUG-RESISTANT PATHOGENS” (priority 2019, published 2020).
Like-named read-outs stand apart in the source and are kept apart here.

Key:
[1] = system: antibiotic-resistant bacteria; conditions: against antibiotic-resistant bacteria
[2] = system: multidrug-resistant Acinetobacter baumannii
[3] = system: extensively multidrug resistant Acinetobacter baumannii
[4] = system: antibiotic resistant Staphylococcus aureus
[5] = system: antibiotic resistant bacteria; conditions: four antibiotic resistant bacteria
[6] = system: antibiotic resistant C. albicans
[7] = system: multidrug resistant Klebsiella pneumonia; conditions: twenty strains of multidrug resistant Klebsiella pneumonia
[8] = system: methicillin-resistant Staphylococcus aureus; conditions: MRSA
[9] = system: antibiotic-resistant streptococcus; conditions: 32 strains of antibiotic-resistant streptococcus
MRSA = conditions: for MBEC: Minimal Biofilm Eradication Concentration, single agent; for MIC: Minimal Inhibitory Concentration
[10] = system: Staphylococcus aureus (NCTC 6571)
[11] = system: Escherichia coli (NCTC 10418)
[12] = system: Bacillus subtilis (NCTC 8236)
[13] = system: Proteus vulgaris (NCTC 4175)
[14] = system: Aspergillus niger (ATCC 10578)
[15] = system: Candida albicans (ATCC 10231)
[16] = system: multidrug resistant Acinetobacter baumannii; conditions: six strains of multidrug resistant Acinetobacter baumannii
[17] = system: antibiotic resistant bacteria; conditions: four strains of antibiotic resistant bacteria; extracted from horseradish
[18] = system: methicillin-resistant Staphylococus aureus

In the case of `Oc1cc(O)c2c(c1)O[C@H](c1cc(O)c(O)c(O)c1)[C@H](O)C2` [epigallocatechin], the “antibiotic properties (in words)” value [1] is listed as “antibiotic properties”.
In the case of `Cn1cnc2c1c(=O)[nH]c(=O)n2C` [theobromine], the “antibiotic properties (in words)” value [1] is given as “antibiotic properties”.
In the case of `O=C(O[C@@H]1Cc2c(O)cc(O)cc2O[C@@H]1c1cc(O)c(=O)c2c(O)c(O)cc([C@H]3Oc4cc(O)cc(O)c4C[C@H]3OC(=O)c3cc(O)c(O)c(O)c3)c2c1)c1cc(O)c(O)c(O)c1` [theaflavin digallate], the “antibiotic properties (in words)” value [1] is given as “antibiotic properties”.
For `O=C(O[C@@H]1Cc2c(O)cc(O)cc2O[C@@H]1c1ccc(O)cc1)c1cc(O)c(O)c(O)c1` [epiafzelechin gallate], the “antibiotic properties (in words)” value [1] is listed as “antibiotic properties”.
In the case of `O=C(O[C@@H]1O[C@@H]2COC(=O)c3cc(O)c(O)c(O)c3-c3c(cc(O)c(O)c3O)C(=O)O[C@H]([C@H]1O)[C@@H]2O)c1cc(O)c(O)c(O)c1` [corilagin], the concentration that inhibits [2] is given as 1,000 micrograms per milliliter.
For catechin gallate, the “antibiotic properties (in words)” value [1] is listed as “antibiotic properties”.
In the case of `C[C@H]1[C@H]2CC[C@H]3[C@@H]4CC=C5C[C@@H](N(C)C)CC[C@]5(C)[C@H]4CC[C@]23CN1C` [conessine], the concentration that inhibits [3] is listed as 10 milligrams per liter.
In the case of pinene, the concentration that inhibits [4] is listed as 20 microliters per milliliter.
In the case of `O=c1cc(-c2ccc(O)c(O)c2)oc2cc(O)cc(O)c12` [luteolin], the concentration that kills [5] is listed as 5 milligrams per milliliter.
In the case of `Oc1cc(O)c2c(c1)O[C@H](c1cc(O)c(O)c(O)c1)[C@@H](O)C2` [gallocatechin], the “antibiotic properties (in words)” value [1] is given as “antibiotic properties”.
For catechin, the concentration that kills [5] is listed as 5 milligrams per milliliter and the “antibiotic properties (in words)” value [1] is listed as “antibiotic properties”.
In the case of `C=CC(C)(O)CCC=C(C)C` (centres unmarked) [linalool], the concentration that inhibits [6] is listed as 1580 micrograms per milliliter.
In the case of `COc1cc(/C=C/C(=O)O)ccc1O` [ferulic acid], the concentration that kills [5] is listed as 5 milligrams per milliliter.
For `O=C(O)/C=C/c1ccc(O)c(O)c1` [caffeic acid], the concentration that kills [7] is given as 1024 microgram per milliliter.
In the case of `CC1(C)[C@@H](O)CC[C@]2(C)[C@H]3C(=O)C=C4[C@@H]5C[C@@](C)(C(=O)O)CC[C@]5(C)CC[C@@]4(C)[C@]3(C)CC[C@@H]12` [glycerrhetinic acid], the concentration that kills [8] is listed as 0.223 µM.
For `Cc1ccc(C(C)C)cc1O` [Carvacrol], the concentration that inhibits [9] is given as 256 micrograms per milliliter, the MBEC (MRSA) is given as 0.04 percentage of volume and the MIC (MRSA) is given as 0.02 percentage of volume.
For piliostigmol, the “inhibition (in words)” value [10] is listed as “inhibits”, the “inhibition (in words)” value [11] is listed as “inhibits” and the “inhibition (in words)” value [12] is listed as “inhibits”. The “inhibition (in words)” value [13] was “inhibits”, the “inhibition (in words)” value [14] was “inhibits” and the “inhibition (in words)” value [15] was “inhibits”.
In the case of `O=c1c(O)cc([C@H]2Oc3cc(O)cc(O)c3C[C@H]2O)cc2c([C@H]3Oc4cc(O)cc(O)c4C[C@H]3O)cc(O)c(O)c12` [theaflavin], the concentration that inhibits [16] is given as 512 milligrams per liter and the “antibiotic properties (in words)” value [1] is given as “antibiotic properties”.
For `S=C=NCCc1ccccc1` [phenylethyl isothiocyanate], the concentration that kills [17] is given as 2000 microgram per milliliter.
In the case of `CC(C)=CCCC(C)=CC=O` [citral], the concentration that kills [18] is listed as 0.06%.
For `Cn1c(=O)c2c(ncn2C)n(C)c1=O` [caffeine], the “antibiotic properties (in words)” value [1] is listed as “antibiotic properties”.
In the case of theaflavin gallate, the “antibiotic properties (in words)” value [1] is listed as “antibiotic properties”.
For `Oc1ccc([C@H]2Oc3cc(O)cc(O)c3C[C@H]2O)cc1` [epiafzelechin], the “antibiotic properties (in words)” value [1] is listed as “antibiotic properties”.
For `CC(C)=CCC/C(C)=C/CO` [geraniol], the concentration that inhibits [6] is listed as 1580 micrograms per milliliter.
For `O=c1cc(-c2ccccc2)oc2c(O)c(O)cc(O)c12` [norwogonin], the concentration that inhibits [2] is listed as 1,000 micrograms per milliliter.
In the case of `O=C(/C=C/c1ccc(O)c(O)c1)O[C@@H]1C[C@](O)(C(=O)O)C[C@@H](O)[C@H]1O` [chlorogenic acid], the concentration that kills [5] is given as 5 milligrams per milliliter and the “antibiotic properties (in words)” value [1] is given as “antibiotic properties”.
In the case of `O=C(O[C@@H]1Cc2c(O)cc(O)cc2O[C@@H]1c1ccc(O)c(O)c1)c1cc(O)c(O)c(O)c1` [epicatechin gallate], the “antibiotic properties (in words)” value [1] is given as “antibiotic properties”.
For `O=C(O[C@@H]1Cc2c(O)cc(O)cc2O[C@@H]1c1cc(O)c(O)c(O)c1)c1cc(O)c(O)c(O)c1` [EGCG, epigallocatechin gallate], the concentration that kills [7] is listed as 1024 microgram per milliliter and the “antibiotic properties (in words)” value [1] is listed as “antibiotic properties”.
For `O=c1c(O)c(-c2ccc(O)cc2)oc2cc(O)cc(O)c12` [kaempferol], the concentration that kills [5] is listed as 5 milligrams per milliliter and the “antibiotic properties (in words)” value [1] is listed as “antibiotic properties”.
In the case of `C=CCc1ccc(O)c(OC)c1` [Eugenol], the MBC (MRSA; Minimal Bactericidal Concentration) is listed as 0.08 percentage of volume, the MBEC (MRSA) is listed as 0.08 percentage of volume and the MIC (MRSA) is listed as 0.04 percentage of volume.
For trechebulin, the concentration that inhibits [2] is listed as 1,000 micrograms per milliliter.
For `O=c1c(O)c(-c2ccc(O)c(O)c2)oc2cc(O)cc(O)c12` [quercetin], the concentration that kills [7] is listed as 1024 microgram per milliliter, the concentration that kills [5] is listed as 5 milligrams per milliliter and the “antibiotic properties (in words)” value [1] is listed as “antibiotic properties”.
For `Cn1c(=O)c2[nH]cnc2n(C)c1=O` [theophylline], the “antibiotic properties (in words)” value [1] is given as “antibiotic properties”.
For theasinesin A, the “antibiotic properties (in words)” value [1] is listed as “antibiotic properties”.
